Strand notation (5' to 3'): a small letter for the sugar, then the base; units joined by * are phosphorothioate-linked, units joined directly phosphodiester-linked; [ ] holds rarer units or linkages, { } end groups; capitals alone tell only the bases. e = 2'-O-(2-methoxyethyl) (MOE); k = constrained ethyl (cEt); [5mC] = 5-methylcytosine; d = 2'-deoxy (DNA)
System: human PKK mRNA
Assay: Antisense inhibition of human PKK mRNA in HepaRG cells, 1,000 nM, MOE/deoxy/cEt oligonucleotides (Example 3)
Type: cell-based
Summary of the method: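 HepaRG cells at 20,000 per well electroporated with 1,000 nM 16-mer MOE/cEt/deoxy gapmers (phosphorothioate, 5-methylcytosine). After about 24 h, PKK mRNA measured by qRT-PCR with primer probe set RTS3454, normalized to RIBOGREEN total RNA. Reported as percent inhibition versus untreated cells.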

[1] = Table 20, HepaRG cells, electroporation with 1,000 nM antisense oligonucleotide, approximately 24 hours, PKK mRNA by RT-PCR (RTS3454), relative to untreated control cells
[2] = Table 22 experiment, HepaRG cells, electroporation with 1,000 nM antisense oligonucleotide, approx. 24 hours, PKK mRNA by RT-PCR (RTS3454), relative to untreated control cells
[3] = Table 30, human PKK mRNA, HepaRG cells, 1,000 nM antisense oligonucleotide
[4] = Table 28, HepaRG cells, 1,000 nM antisense oligonucleotide, human PKK mRNA
[5] = HepaRG cells, 1,000 nM antisense oligonucleotide, Table 29
[6] = HepaRG cells, electroporation with 1,000 nM antisense oligonucleotide, approximately 24 hours, primer probe set RTS3454, relative to untreated control cells, experiment of Table 24
[7] = HepaRG cells, electroporation with 1,000 nM antisense oligonucleotide, approximately 24 hours, primer probe set RTS3454, relative to untreated control cells, experiment of Table 23
[8] = PKK mRNA, HepaRG cells, 1,000 nM antisense oligonucleotide, Table 31
[9] = HepaRG cells, electroporation with 1,000 nM antisense oligonucleotide, approx. 24 hours, PKK mRNA by RT-PCR (RTS3454), relative to untreated control cells, Table 25 experiment
[10] = Table 19, HepaRG cells, electroporation with 1,000 nM antisense oligonucleotide, approximately 24 hours, PKK mRNA by RT-PCR (RTS3454), relative to untreated control cells
[11] = Table 21 experiment, HepaRG cells, electroporation with 1,000 nM antisense oligonucleotide, approx. 24 hours, PKK mRNA by RT-PCR (RTS3454), relative to untreated control cells
[12] = Table 27, HepaRG cells, 1,000 nM antisense oligonucleotide, human PKK mRNA

“547868 (antisense eA*e[5mC]*k[5mC]*dT*dT*dA*dG*dA*d[5mC]*dA*d[5mC]*dA*dT*kT*kA*eA) [compound 547868]” was tested, and the “% inhibition” value [1] was 47% and the “% inhibition” value [2] was 71%.
“548435 (antisense eA*eA*k[5mC]*dA*dA*dT*dA*dT*d[5mC]*dA*d[5mC]*dT*dG*kT*kA*e[5mC]) [compound 548435]” was tested, and the “% inhibition” value [3] was 19%.
With “548505 (antisense eG*eG*kA*d[5mC]*dA*dA*dT*dG*d[5mC]*d[5mC]*dT*dA*dT*kG*k[5mC]*eT) [compound 548505]” the “% inhibition” value [4] was 21%.
With “548520 (antisense e[5mC]*e[5mC]*kG*d[5mC]*dT*dT*d[5mC]*d[5mC]*d[5mC]*dT*dG*dA*d[5mC]*kT*kG*eT) [compound 548520]” the “% inhibition” value [4] was 43%.
“548445 (antisense e[5mC]*e[5mC]*kT*dA*dT*dG*dT*d[5mC]*dA*d[5mC]*dT*dG*dT*kA*k[5mC]*e[5mC]) [compound 548445]” was tested, and the “% inhibition” value [3] was 62%.
In the case of “548612 (antisense eG*eG*k[5mC]*dG*dG*dG*dA*dT*d[5mC]*dG*dG*dT*dG*kG*kT*eG) [compound 548612]”, the “% inhibition” value [5] is reported as 20%.
For “548053 (eA*eT*kT*d[5mC]*dA*dA*dA*dG*dG*dA*dG*d[5mC]*d[5mC]*kT*kG*eG; antisense) [compound 548053]”, the “% inhibition” value [6] was 36%.
With “547872 (antisense eT*eG*k[5mC]*dT*dA*dA*d[5mC]*d[5mC]*dT*dT*dA*dG*dA*k[5mC]*kA*e[5mC]) [compound 547872]” the “% inhibition” value [1] was 85% and the “% inhibition” value [2] was 73%.
With “548413 (antisense e[5mC]*eT*kA*dA*d[5mC]*dA*dG*dT*dA*dT*d[5mC]*dA*d[5mC]*kT*kG*eT) [compound 548413]” the “% inhibition” value [3] was 55%.
For “548443 (antisense eG*eT*kT*dT*d[5mC]*d[5mC]*dT*dA*dT*dA*dA*d[5mC]*dA*kG*kT*eA) [compound 548443]”, the “% inhibition” value [3] was 12%.
With “548560 (antisense e[5mC]*eA*k[5mC]*dT*dG*d[5mC]*d[5mC]*dT*dA*dG*dA*dA*dA*kG*kG*e[5mC]) [compound 548560]” the “% inhibition” value [5] was 16%.
In the case of “548595 (eG*eG*kA*dT*dG*dA*dG*dA*dT*dG*d[5mC]*dA*dT*k[5mC]*k[5mC]*eA; antisense) [compound 548595]”, the “% inhibition” value [5] is reported as 8%.
“547875 (antisense e[5mC]*eA*k[5mC]*dT*dG*d[5mC]*dT*dA*dA*d[5mC]*d[5mC]*dT*dT*kA*kG*eA) [compound 547875]” was tested, and the “% inhibition” value [1] was 73% and the “% inhibition” value [2] was 57%.
For “547976 (antisense e[5mC]*e[5mC]*kA*dA*dA*dG*dT*d[5mC]*dA*dA*d[5mC]*dT*d[5mC]*k[5mC]*k[5mC]*eG) [compound 547976]”, the “% inhibition” value [7] was 49%.
In the case of “548597 (eT*eG*kA*dA*dT*dA*d[5mC]*d[5mC]*dA*dT*d[5mC]*d[5mC]*d[5mC]*k[5mC]*kG*e[5mC]; antisense) [compound 548597]”, the “% inhibition” value [5] is reported as 50%.
“548624 (antisense eT*e[5mC]*kT*dA*dG*dG*dG*d[5mC]*d[5mC]*dA*d[5mC]*dA*d[5mC]*k[5mC]*kT*e[5mC]) [compound 548624]” was tested, and the “% inhibition” value [8] was 24%.
For “548430 (antisense e[5mC]*e[5mC]*kT*dA*dT*dA*dA*d[5mC]*dT*dA*dT*dA*dA*k[5mC]*kA*eG) [compound 548430]”, the “% inhibition” value [3] was 21%.
In the case of “548227 (eG*eT*kG*dG*d[5mC]*d[5mC]*d[5mC]*dT*d[5mC]*dT*dT*dA*dA*kG*kT*e[5mC]; antisense) [compound 548227]”, the “% inhibition” value [9] is reported as 0%.
With “548042 (eT*eT*kT*dG*dT*dG*dA*dG*dA*dA*dA*dG*dG*kT*kG*eT; antisense) [compound 548042]” the “% inhibition” value [6] was 63%.
“548554 (antisense eG*eT*kG*d[5mC]*dT*dG*d[5mC]*dA*dT*dT*dG*d[5mC]*dA*kT*kG*eA) [compound 548554]” was tested, and the “% inhibition” value [5] was 42%.
For “548685 (antisense eT*eA*kG*dT*d[5mC]*d[5mC]*dA*d[5mC]*dT*dA*d[5mC]*dA*d[5mC]*kA*kG*e[5mC]) [compound 548685]”, the “% inhibition” value [8] was 24%.
With “548143 (e[5mC]*eA*k[5mC]*dT*d[5mC]*dT*d[5mC]*d[5mC]*dA*dT*dG*d[5mC]*dT*kT*kT*eG; antisense) [compound 548143]” the “% inhibition” value [10] was 39%.
With “548497 (antisense e[5mC]*e[5mC]*kT*dT*d[5mC]*dA*dT*dA*d[5mC]*d[5mC]*d[5mC]*d[5mC]*dT*k[5mC]*kA*e[5mC]) [compound 548497]” the “% inhibition” value [4] was 26%.
“547787 (antisense eA*eA*kG*dT*dT*dG*d[5mC]*dT*dT*dG*d[5mC]*dT*dT*kG*kA*eA) [compound 547787]” was tested, and the “% inhibition” value [11] was 22%.
For “548419 (antisense e[5mC]*e[5mC]*kT*dA*dT*dA*dT*d[5mC]*dA*d[5mC]*dT*dG*dT*k[5mC]*k[5mC]*eT) [compound 548419]”, the “% inhibition” value [3] was 52%.
In the case of “548607 (eT*e[5mC]*kG*dG*dT*dG*dG*dT*dG*dG*dG*dA*dT*kT*kG*eG; antisense) [compound 548607]”, the “% inhibition” value [5] is reported as 34%.
For “548099 (antisense e[5mC]*eT*k[5mC]*dA*dG*d[5mC]*dG*dA*d[5mC]*dT*dT*dT*dG*kG*kT*eG) [compound 548099]”, the “% inhibition” value [10] was 55%.
“548341 (antisense eT*eA*kG*dA*dA*d[5mC]*d[5mC]*dT*dT*d[5mC]*d[5mC]*dT*d[5mC]*k[5mC]*kA*e[5mC]) [compound 548341]” was tested, and the “% inhibition” value [12] was 30%.
In the case of “548218 (eT*e[5mC]*k[5mC]*dT*dG*dT*dG*d[5mC]*dA*dT*dA*dG*dA*k[5mC]*k[5mC]*e[5mC]; antisense) [compound 548218]”, the “% inhibition” value [9] is reported as 59%.
In the case of “548360 (antisense e[5mC]*eA*kA*dG*dA*d[5mC]*dA*dT*d[5mC]*dA*dG*dT*dA*kG*k[5mC]*eT) [compound 548360]”, the “% inhibition” value [12] is reported as 45%.
For “547938 (eT*eT*kG*dT*dG*dA*d[5mC]*dT*d[5mC]*dG*dA*dT*dT*kT*kT*e[5mC]; antisense) [compound 547938]”, the “% inhibition” value [7] was 56%.
For “547784 (antisense eG*e[5mC]*kT*dT*dG*dA*dA*dT*dA*dA*dA*dA*dT*k[5mC]*kA*eT) [compound 547784]”, the “% inhibition” value [11] was 46%.
In the case of “548394 (eG*eG*k[5mC]*dA*dG*dG*dA*dG*dA*d[5mC]*dT*d[5mC]*d[5mC]*kG*kT*eG; antisense) [compound 548394]”, the “% inhibition” value [3] is reported as 25%.
For “548387 (eT*eG*kA*dA*dG*dG*dG*d[5mC]*dG*dA*dG*dG*d[5mC]*kG*k[5mC]*eA; antisense) [compound 548387]”, the “% inhibition” value [3] was 22%.
“548620 (antisense eT*eG*kG*dT*dT*dG*dG*dT*dG*dG*d[5mC]*dG*dG*kG*kA*eT) [compound 548620]” was tested, and the “% inhibition” value [8] was 24%.
With “547963 (antisense eG*eT*kT*d[5mC]*dA*dG*dG*dT*dA*dA*dA*dG*dT*kT*k[5mC]*eT) [compound 547963]” the “% inhibition” value [7] was 22%.
In the case of “548185 (eA*eA*k[5mC]*dA*d[5mC]*dA*d[5mC]*dA*dG*dT*d[5mC]*dA*dT*kG*kG*eA; antisense) [compound 548185]”, the “% inhibition” value [9] is reported as 23%.
“548538 (antisense eT*eA*kG*dT*dG*dG*d[5mC]*dA*dA*dG*dA*dA*d[5mC]*k[5mC]*kA*e[5mC]) [compound 548538]” was tested, and the “% inhibition” value [5] was 0%.
In the case of “548416 (antisense e[5mC]*eT*kA*dT*dA*dA*d[5mC]*dT*d[5mC]*dT*dA*dA*d[5mC]*kA*kG*eT) [compound 548416]”, the “% inhibition” value [3] is reported as 9%.
With “548116 (antisense eT*e[5mC]*kA*dT*dG*d[5mC]*dT*dG*dG*dT*dG*dA*d[5mC]*kT*kG*e[5mC]) [compound 548116]” the “% inhibition” value [10] was 3%.
For “548653 (antisense eT*e[5mC]*kG*dG*d[5mC]*dT*d[5mC]*d[5mC]*dT*dG*dG*d[5mC]*dA*kG*k[5mC]*eA) [compound 548653]”, the “% inhibition” value [8] was 46%.
In the case of “548233 (eA*eT*kT*dG*dT*dA*dG*d[5mC]*d[5mC]*dA*dT*dA*d[5mC]*kA*kT*e[5mC]; antisense) [compound 548233]”, the “% inhibition” value (HepaRG cells, electroporation with 1,000 nM antisense oligonucleotide, approx. 24 hours, PKK mRNA by RT-PCR (RTS3454), relative to untreated control cells, Table 26 experiment) is reported as 38%.
For “548040 (eG*eT*kG*dA*dG*dA*dA*dA*dG*dG*dT*dG*dT*kA*kT*e[5mC]; antisense) [compound 548040]”, the “% inhibition” value [6] was 62%.
For “548499 (antisense eA*eT*kA*d[5mC]*d[5mC]*d[5mC]*dG*dG*dA*dG*dT*d[5mC]*dA*kG*kG*eA) [compound 548499]”, the “% inhibition” value [4] was 56%.

From patent US11840686B2, “Modulation of prekallikrein (PKK) expression” (Ionis Pharmaceuticals, Inc., priority 2013, dated 2023)
